The assay concerns the target 5'-nucleotidase CD73 (Homo sapiens) (UniProt P21589). In words: Binding affinity to human recombinant CD73 expressed in Sf9 cells assessed as inhibition constant by malachite green based spectrophotometer assay.

Chain of 5'-nucleotidase CD73 (Homo sapiens) (P21589 whole entry, looked up): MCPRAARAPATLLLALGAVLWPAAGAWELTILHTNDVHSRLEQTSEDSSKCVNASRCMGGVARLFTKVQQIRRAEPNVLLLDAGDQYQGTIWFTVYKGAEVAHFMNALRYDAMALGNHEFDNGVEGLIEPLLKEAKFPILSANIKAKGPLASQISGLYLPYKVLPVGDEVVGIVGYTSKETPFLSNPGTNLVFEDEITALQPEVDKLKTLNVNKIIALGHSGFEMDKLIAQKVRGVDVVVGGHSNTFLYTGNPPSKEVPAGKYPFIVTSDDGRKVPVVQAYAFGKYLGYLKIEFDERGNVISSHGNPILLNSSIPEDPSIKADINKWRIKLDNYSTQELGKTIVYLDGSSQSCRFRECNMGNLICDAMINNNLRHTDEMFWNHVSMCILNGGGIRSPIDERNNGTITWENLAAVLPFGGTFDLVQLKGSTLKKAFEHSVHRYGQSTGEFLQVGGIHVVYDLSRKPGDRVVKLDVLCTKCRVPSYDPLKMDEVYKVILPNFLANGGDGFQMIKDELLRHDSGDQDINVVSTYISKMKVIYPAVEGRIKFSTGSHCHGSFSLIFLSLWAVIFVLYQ

Turning to `CCN(CC)c1nc(Cl)nc2c1ncn2[C@@H]1O[C@H](COCP(=O)(O)OP(=O)(O)C(Br)(Br)P(=O)(O)O)[C@@H](O)[C@H]1O`, the Ki is 97 nM.

Values taken from BindingDB's records for PubMed 37302340 (Chengdu University of Traditional Chinese Medicine).
